Source: US20200009168A1, “MICROBIOME REGULATORS AND RELATED USES THEREOF” (KALEIDO BIOSCIENCES, INC., priority 2015, published 2020)

Tests used:
[1] = system: Bacteroides caccae ATCC 43185 "BCA.26"; assay: Sugar-supported growth of commensal bacteria, BCA.26; type: cell-based; settings: 0.5% w/v sugar, 37° C., 18-24 hours, anaerobic; OD600 divided by OD600 with 0.5% w/v dextrose
Description: (§1) An in vitro assay was performed to assess the ability of various bacterial strains, including commensals of the gastrointestinal tract, to utilize different sugars as growth substrates. This assay was designed to assess the ability of selected natural monosaccharides, disaccharides and synthetic sugars to promote the growth of microbiota associated with a healthy state. Bacterial strains were handled at all steps in an anaerobic chamber (AS-580, Anaerobe Systems) featuring a palladium catalyst. The chamber was initially made anaerobic by purging with an anaerobic gas mixture of 5% hydrogen, 5% carbon dioxide and 90% nitrogen and subsequently maintained in an anaerobic state using this same anaerobic gas mixture. Anaerobicity of the chamber was confirmed daily using Oxoid anaerobic indicator strips that change color in the presence of oxygen. All culture media, assay plates, other reagents and plastic consumables were pre-reduced in the anaerobic chamber for 24-48 hours prior to contact with bacteria. Sugars were prepared at 5% w/v in water, filter-sterilized and added to Costar 3370 assay plates for a final concentration of 0.5% w/v in the assay, with each microbiome regulator assayed in two non-adjacent wells and dextrose and water supplied as positive and negative controls.
(§2) Bacterial isolates were obtained from the American Type Culture Collection (ATCC) and Leibniz Institute DSMZ-German Institute of Microorganisms and Cell Cultures (DSMZ). Cultures of the Bacteroidetes Bacteroides caccae ATCC 43185 “BCA.26”, Bacteroides thetaiotaomicron ATCC 29741 “BTH.8”, Bacteroides cellulosilyticus DSM 14838 “BCE.71”, Parabacteroides distasonis ATCC 8503 “PDI.6” and Prevotella copri DSM 18205 “PCO.72”; the Clostridiales Clostridium scindens ATCC 35704 “CSC.32”, Dorea formicigenerans ATCC 27755 “DFO.36” and Ruminococcus obeum ATCC 29714 “ROB.74”; and the Bifidobacteria Bifidobacterium longum ATCC 15707 “BLO.16” and Bifidobacterium longum DSM 20088 “BLO.83”, were grown anaerobically in Chopped Meat Glucose broth (CMG, Anaerobe Systems), a pre-reduced enriched medium including lean ground beef, enzymatic digest of casein, yeast extract, potassium phosphate, dextrose, cysteine, hemin and Vitamin K1, for 18-48 hours at 37° C. Inocula were prepared by determining the optical density of each culture at […] (OD600) in a Costar 3370 polystyrene 96-well flat-bottom assay plate using a Biotek Synergy 2 plate reader with Gen5 2.0 All-In-One Microplate Reader Software according to manufacturer's protocol, and diluting the cells to OD600 0.01 final in defined and semi-defined media that were prepared without sugars. D. formicigenerans, P. distasonis and B. longum isolates were tested in 900 mg/L sodium chloride, 26 mg/L calcium chloride dihydrate, 20 mg/L magnesium chloride hexahydrate, 10 mg/L manganese chloride tetrahydrate, 40 mg/L ammonium sulfate, 4 mg/L iron sulfate heptahydrate, 1 mg/L cobalt chloride hexahydrate, 300 mg/L potassium phosphate dibasic, 1.5 g/L sodium phosphate dibasic, 5 g/L sodium bicarbonate, 0.125 mg/L biotin, 1 mg/L pyridoxine, […], 75 mg/L histidine, 75 mg/L glycine, 75 mg/L tryptophan, 150 mg/L arginine, 150 mg/L methionine, 150 mg/L threonine, 225 mg/L valine, 225 mg/L isoleucine, 300 mg/L leucine, 400 mg/L cysteine, and 450 mg/L proline (Theriot C M et al. Nat Commun. 2014; 5:3114), supplemented with 0-3.5% (v/v) CMG. B. thetaiotaomicron, B. caccae and B. cellulosyliticus were tested in 100 mM potassium phosphate buffer (pH 7.2), 15 mM sodium chloride, 8.5 mM ammonium sulfate, 4 mM L-cysteine, 1.9 μM hematin, 200 μM L-histidine, 100 μM magnesium chloride, 1.4 μM iron sulfate heptahydrate, 50 μM calcium chloride, 1 μg/mL vitamin K3 and 5 ng/mL vitamin B12 (Martens E C et al. Cell Host & Microbe 2008; 4, 447-457). […]

[2] = system: Bacteroides cellulosilyticus DSM 14838 "BCE.71"; assay: Sugar-supported growth of commensal bacteria, BCE.71; type: cell-based; settings: 0.5% w/v sugar, 37° C., 18-24 hours, anaerobic; OD600 divided by OD600 with 0.5% w/v dextrose
Description: as §1, §2

[3] = system: Bacteroides thetaiotaomicron ATCC 29741 "BTH.8"; assay: Sugar-supported growth of commensal bacteria, BTH.8; type: cell-based; settings: 0.5% w/v sugar, 37° C., 18-24 hours, anaerobic; OD600 divided by OD600 with 0.5% w/v dextrose
Description: as §1, §2

[4] = system: Parabacteroides distasonis ATCC 8503 "PDI.6"; assay: Sugar-supported growth of commensal bacteria, PDI.6; type: cell-based; settings: 0.5% w/v sugar, 37° C., 18-24 hours, anaerobic; OD600 divided by OD600 with 0.5% w/v dextrose
Description: as §1, §2

[5] = system: Ruminococcus obeum ATCC 29714 "ROB.74"; assay: Sugar-supported growth of commensal bacteria, ROB.74; type: cell-based; settings: 0.5% w/v sugar, 37° C., 18-24 hours, anaerobic; OD600 divided by OD600 with 0.5% w/v dextrose
Description: as §1, §2

[6] = system: Prevotella copri DSM 18205 "PCO.72"; assay: Sugar-supported growth of commensal bacteria, PCO.72; type: cell-based; settings: 0.5% w/v sugar, 37° C., 18-24 hours, anaerobic; OD600 divided by OD600 with 0.5% w/v dextrose
Description: as §1, §2

[7] = system: Clostridium scindens ATCC 35704 "CSC.32"; assay: Sugar-supported growth of commensal bacteria, CSC.32; type: cell-based; settings: 0.5% w/v sugar, 37° C., 18-24 hours, anaerobic; OD600 divided by OD600 with 0.5% w/v dextrose
Description: as §1, §2

[8] = system: Dorea formicigenerans ATCC 27755 "DFO.36"; assay: Sugar-supported growth of commensal bacteria, DFO.36; type: cell-based; settings: 0.5% w/v sugar, 37° C., 18-24 hours, anaerobic; OD600 divided by OD600 with 0.5% w/v dextrose
Description: as §1, §2

[9] = system: Bifidobacterium longum ATCC 15707 "BLO.16"; assay: Sugar-supported growth of commensal bacteria, BLO.16; type: cell-based; settings: 0.5% w/v sugar, 37° C., 18-24 hours, anaerobic; OD600 divided by OD600 with 0.5% w/v dextrose
Description: as §1, §2

[10] = system: Bifidobacterium longum DSM 20088 "BLO.83"; assay: Sugar-supported growth of commensal bacteria, BLO.83; type: cell-based; settings: 0.5% w/v sugar, 37° C., 18-24 hours, anaerobic; OD600 divided by OD600 with 0.5% w/v dextrose
Description: as §1
Bacterial isolates were obtained from the American Type Culture Collection (ATCC) and Leibniz Institute DSMZ-German Institute of Microorganisms and Cell Cultures (DSMZ). Cultures of the Bacteroidetes Bacteroides caccae ATCC 43185 “BCA.26”, Bacteroides thetaiotaomicron ATCC 29741 “BTH.8”, Bacteroides cellulosilyticus DSM 14838 “BCE.71”, Parabacteroides distasonis ATCC 8503 “PDI.6” and Prevotella copri DSM 18205 “PCO.72”; the Clostridiales Clostridium scindens ATCC 35704 “CSC.32”, Dorea formicigenerans ATCC 27755 “DFO.36” and Ruminococcus obeum ATCC 29714 “ROB.74”; and the Bifidobacteria Bifidobacterium longum ATCC 15707 “BLO.16” and Bifidobacterium longum DSM 20088 “BLO.83”, were grown anaerobically in Chopped Meat Glucose broth (CMG, Anaerobe Systems), a pre-reduced enriched medium including lean ground beef, enzymatic digest of casein, yeast extract, potassium phosphate, dextrose, cysteine, hemin and Vitamin K1, for 18-48 hours at 37° C. Inocula were prepared by determining the optical density of each culture at […] (OD600) in a Costar 3370 polystyrene 96-well flat-bottom assay plate using a Biotek Synergy 2 plate reader with Gen5 2.0 All-In-One Microplate Reader Software according to manufacturer's protocol, and diluting the cells to OD600 0.01 final in defined and semi-defined media that were prepared without sugars. […]

panel of 10 commensals = assay: Sugar-supported growth, whole panel of 10 commensals; type: cell-based; settings: 0.5% w/v sugar, summary in words
Description: as §1, §2

[11] = studies by McCance et al (J Biol Chem (1930) 24:795-804); cited from earlier work
[12] = system: colonic regulatory T cells; settings: in mice or in vitro; cited from earlier work

Structure (SMILES) | Average Normalized Growth (NGV), BCA.26 [1] | Average Normalized Growth (NGV), BCE.71 [2] | Average Normalized Growth (NGV), BTH.8 [3] | Average Normalized Growth (NGV), PDI.6 [4] | Average Normalized Growth (NGV), ROB.74 [5] | Average Normalized Growth (NGV), PCO.72 [6] | Average Normalized Growth (NGV), CSC.32 [7] | Average Normalized Growth (NGV), DFO.36 [8] | Average Normalized Growth (NGV), BLO.16 [9] | Average Normalized Growth (NGV), BLO.83 [10] | taxa or strains of the commensal panel whose growth was supported (panel of 10 commensals) | absorption by the gastrointestinal tract [11] | expression of Foxp3, a T cell regulatory factor [12] | expression of IL-10, an anti-inflammatory cytokine [12]
O=C[C@H](O)[C@@H](O)[C@@H](O)[C@H](O)CO [D-galactose] | ++ (0.6-1) | +++ (>1) | +++ (>1) | +++ (>1) | + (0.2-0.6) | +++ (>1) | ++ (0.6-1) | + (0.2-0.6) | − (<0.2) | +++ (>1) | supported some commensals from the taxa Bacteroidetes, Firmicutes, including Lachnospiraceae, and Bifidobacteria | readily absorbed | – | –
O=C[C@@H](O)[C@H](O)[C@H](O)CO [arabinose] | – | – | – | – | – | – | – | – | – | – | – | are not | – | –
OC[C@H]1O[C@@H](O[C@H]2[C@H](O)[C@@H](O)C(O)O[C@@H]2CO)[C@H](O)[C@@H](O)[C@H]1O (stereo partly drawn) [lactose] | +++ (>1) | +++ (>1) | +++ (>1) | +++ (>1) | ++ (0.6-1) | +++ (>1) | +++ (>1) | +++ (>1) | ++ (0.6-1) | +++ (>1) | supported some commensals from the taxa Bacteroidetes, Firmicutes, including Lachnospiraceae, and Bifidobacteria | – | – | –
O=C(CO)[C@@H](O)[C@H](O)[C@H](O)CO [D-fructose] | ++ (0.6-1) | +++ (>1) | ++ (0.6-1) | +++ (>1) | ++ (0.6-1) | ++ (0.6-1) | +++ (>1) | +++ (>1) | +++ (>1) | +++ (>1) | supported some commensals from the taxa Bacteroidetes, Firmicutes, including Lachnospiraceae, and Bifidobacteria | – | – | –
CCC(=O)O [propionate, propionic acid] | – | – | – | – | – | – | – | – | – | – | – | – | increased | increased
C[C@H](O)[C@H](O)[C@@H](O)[C@@H](O)C=O [L-rhamnose] | − (<0.2) | – | + (0.2-0.6) | − (<0.2) | – | + (0.2-0.6) | − (<0.2) | − (<0.2) | − (<0.2) | – | – | are not | – | –
